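Cultured in 96-well plates, cells were exposed to test compound for 48 hours across five concentrations. GI50 marks 50% less growth.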 Calls of active or inactive are those of the source. No stated cut-off is given here; in the data, active = GI50 up to about 1.1 µM and inactive = higher.
How the values were obtained:
Test in all cases: NCI anticancer screen, dose series, 48 h
[1] = test system: A549
[2] = test system: ACHN
[3] = test system: HCT-116
[4] = test system: IGROV-1
[5] = test system: LOX IMVI
[6] = test system: MOLT-4
[7] = test system: Malme-3M
[8] = test system: NCI-H460
[9] = test system: OVCAR-4
[10] = test system: OVCAR-5
[11] = test system: RXF 393
[12] = test system: SK-OV-3
[13] = test system: SNB-19
[14] = test system: TK-10
[15] = test system: U-251
[16] = test system: SR

Measured: GI50

O=C(/C=C/c1ccccc1)CC1OC(=O)c2ccccc21 (centres undefined)
inactive: [1] > 100 µM | [2] > 100 µM | [3] 31.2 µM | [4] 80.7 µM | [5] 49.7 µM | [6] 31 µM | [7] > 100 µM | [8] > 100 µM | [9] > 100 µM | [10] > 100 µM | [11] > 100 µM | [12] > 100 µM | [13] 42.1 µM | [14] > 100 µM | [15] > 100 µM

COC(=O)C12CCC(CC1=O)C2(C)C (centres undefined)
inactive: [1] > 100 µM | [2] > 100 µM | [3] > 100 µM | [4] > 100 µM | [5] > 100 µM | [6] > 100 µM | [7] > 100 µM | [8] > 100 µM | [9] > 100 µM | [11] > 100 µM | [12] > 100 µM | [13] > 100 µM | [16] > 100 µM | [14] > 100 µM | [15] > 100 µM

C#CCC(O)c1ccccc1C(O)CC#C (centres undefined)
inactive: [1] > 100 µM | [2] 75.5 µM | [4] > 100 µM | [5] > 100 µM | [6] > 100 µM | [7] 79.4 µM | [8] > 100 µM | [9] > 100 µM | [10] > 100 µM | [11] 29 µM | [12] 39.7 µM | [13] > 100 µM | [14] 97.5 µM

Cc1cc(N(CCC#N)CCC#N)ccc1/C=C1N=C(/C=C\c2ccccc2)N(NC(=O)CC(=O)Nc2ccccc2Cl)C\1=O
inactive: [1] > 100 µM | [2] > 100 µM | [3] > 100 µM | [4] > 100 µM | [5] > 100 µM | [6] > 100 µM | [7] > 100 µM | [8] > 100 µM | [9] > 100 µM | [10] > 100 µM | [12] > 100 µM | [13] > 100 µM | [14] > 100 µM | [15] > 100 µM

C=CCC12CCC(=O)C=C1CCC1(C2)OCCO1 (centres undefined)
inactive: [1] > 100 µM | [2] > 100 µM | [3] > 100 µM | [4] > 100 µM | [6] > 100 µM | [7] > 100 µM | [8] > 100 µM | [9] > 100 µM | [11] > 100 µM | [12] > 100 µM | [13] > 100 µM | [16] > 100 µM | [14] > 100 µM | [15] > 100 µM

O=C1C(=O)N(c2ccc(Cl)cc2)C(=O)C(=O)C1c1nc2ccccc2s1
inactive: [2] 89.3 µM | [3] > 100 µM | [4] 71 µM | [5] > 100 µM | [6] 21.9 µM | [7] > 100 µM | [8] > 100 µM | [9] > 100 µM | [10] > 100 µM | [11] > 100 µM | [12] > 100 µM | [13] > 100 µM | [14] > 100 µM | [15] > 100 µM

CC1=C(C(=O)Nc2cccc(Cl)c2)C(c2ccccc2O)C(C(=O)Nc2cccc(Cl)c2)=C(C)N1
inactive: [1] 20.2 µM | [2] 23.7 µM | [4] 23.9 µM | [5] 21.8 µM | [6] 25.2 µM | [7] 19.4 µM | [8] 21.6 µM | [9] 18.3 µM | [10] 19.4 µM | [11] 17.2 µM | [12] 24.3 µM | [13] 26.1 µM | [14] 18.9 µM | [15] 19.9 µM

CCOP(=O)(OCC)OC(C#N)c1ccc(-c2ccccc2)cc1 (centres undefined)
inactive: [1] 18.4 µM | [2] 33 µM | [3] 15.2 µM | [4] 36.3 µM | [5] 13.7 µM | [6] 14.2 µM | [7] 19.6 µM | [8] 20.5 µM | [9] 21.1 µM | [10] 54.1 µM | [12] 28.4 µM | [13] 73.1 µM | [16] 30 µM | [14] 30.5 µM | [15] 15.2 µM

COc1ccc(/C=C\c2cc(OC)c(O[Si](C)(C)C(C)(C)C)c(OC)c2)cc1
inactive: [1] 38.6 µM | [2] 31.2 µM | [3] 33.7 µM | [4] > 100 µM | [6] 15.8 µM | [7] 34.8 µM | [8] 33 µM | [9] 76.6 µM | [10] 20.6 µM | [12] > 100 µM | [13] 47.6 µM | [16] 19.7 µM | [15] 19.4 µM

CC(C)(C)C(=O)C1CC(=O)c2ccccc2C1=O (centres undefined)
inactive: [1] 38.2 µM | [2] 44.7 µM | [3] 21.4 µM | [4] 33.7 µM | [5] 40.8 µM | [6] 27.8 µM | [7] 16.3 µM | [8] 29.7 µM | [9] 33 µM | [10] 37.1 µM | [11] 22.2 µM | [12] 27.1 µM | [13] 24 µM | [14] 34.1 µM | [15] 34 µM

CC(=O)OC1CC2(c3ccccc3)C(=O)c3ccccc3N2O1 (centres undefined)
inactive: [1] > 100 µM | [2] > 100 µM | [3] > 100 µM | [4] > 100 µM | [6] > 100 µM | [7] > 100 µM | [9] > 100 µM | [11] > 100 µM | [12] > 100 µM | [13] > 100 µM | [16] > 100 µM | [15] > 100 µM

NN1C(=O)C(CCO)S/C1=N/N=C1/SC(CCO)C(=O)N1N (centres undefined)
inactive: [1] > 100 µM | [2] > 100 µM | [3] > 100 µM | [4] > 100 µM | [5] > 100 µM | [6] > 100 µM | [7] > 100 µM | [8] > 100 µM | [9] > 100 µM | [10] > 100 µM | [11] > 100 µM | [12] > 100 µM | [13] > 100 µM | [16] > 100 µM | [15] > 100 µM

COc1cc(-c2c(C)c(C)nc(OC)c2C#N)cc(OC)c1OC
inactive: [1] > 100 µM | [2] > 100 µM | [3] > 100 µM | [4] > 100 µM | [6] 39.9 µM | [7] > 100 µM | [8] > 100 µM | [9] 61 µM | [11] 44.2 µM | [12] > 100 µM | [13] > 100 µM | [14] > 100 µM | [15] > 100 µM

N#CC(C#N)c1ccc(C(=O)N2CCC[C@H]2CO)cc1
inactive: [1] > 100 µM | [2] > 100 µM | [4] > 100 µM | [5] > 100 µM | [6] > 100 µM | [7] > 100 µM | [8] > 100 µM | [9] > 100 µM | [10] > 100 µM | [11] > 100 µM | [12] > 100 µM | [13] > 100 µM | [14] > 100 µM | [15] > 100 µM

COCCN1C2=CCCCC2=Nc2c1nc(N)[nH]c2=O
inactive: [1] > 100 µM | [2] > 100 µM | [3] > 100 µM | [4] > 100 µM | [5] > 100 µM | [6] > 100 µM | [7] > 100 µM | [8] > 100 µM | [10] > 100 µM | [11] > 100 µM | [12] > 100 µM | [13] > 100 µM | [16] > 100 µM | [14] > 100 µM | [15] > 100 µM

CCCC1N2CCCCC2[C@@H]2c3[nH]c4ccccc4c3CCN12 (some centres undefined)
inactive: [1] > 100 µM | [2] > 100 µM | [3] > 100 µM | [4] > 100 µM | [6] > 100 µM | [7] 25.8 µM | [8] > 100 µM | [9] > 100 µM | [10] > 100 µM | [11] > 100 µM | [12] > 100 µM | [13] > 100 µM | [15] > 100 µM

O=c1cccccc1NCCCCCCCCCNc1cccccc1=O
inactive: [1] 9.66 µM | [2] 4.28 µM | [3] 2.74 µM | [4] 19 µM | [5] 5.9 µM | [6] 5.75 µM | [7] 7.52 µM | [8] 9.51 µM | [9] 1.78 µM | [10] 17.5 µM | [11] 22.5 µM | [12] 33.1 µM | [13] 11.5 µM | [16] 8.43 µM | [15] 10.6 µM

O=C(O)[C@@H]1OCCOCCO[C@@H](C(=O)O)[C@H](C(=O)O)OCCOCCO[C@H]1C(=O)O
inactive: [1] > 100 µM | [2] > 61.8 µM | [3] > 67.8 µM | [4] > 100 µM | [5] > 71.3 µM | [6] > 64.3 µM | [7] > 100 µM | [8] > 64.4 µM | [9] > 100 µM | [10] > 100 µM | [12] > 100 µM | [13] > 100 µM | [16] 19.1 µM | [14] > 100 µM | [15] > 42.1 µM

N#CC(C(=O)C(N)=O)c1ccccc1Cl (centres undefined)
inactive: [1] > 100 µM | [2] > 100 µM | [3] > 100 µM | [4] > 100 µM | [5] > 100 µM | [6] > 100 µM | [7] > 100 µM | [8] > 100 µM | [9] > 100 µM | [10] > 100 µM | [11] > 100 µM | [12] > 100 µM | [13] > 100 µM | [14] > 100 µM | [15] > 100 µM
